Assay results from US20260070945A1, “MACROCYCLIC IMMUNOMODULATORS” (Bristol-Myers Squibb Company, priority 2022, published 2026).
*1 amine or outer side, *2 acyl side, *3 side chain or, on linkers, in order; H or OH if unused. Where a SMILES comes first, the peptide text is derived from it. Bridges are numbered along the chain shown (N, C = ends). [ ]: non-standard residue; d: D form. The star is where a group is joined. ξ: configuration not given here. X15 = NCCCC[C@H](NC(=O)CNCCNCCN*)C(=O)NCCCCCCCCCCC(=O)O; Phe(3-CF3) = N[C@@H](Cc1cccc(C(F)(F)F)c1)C(=O)O; Phe(4-COOH) = N[C@@H](Cc1ccc(C(=O)O)cc1)C(=O)O; Bip = N[C@@H](Cc1ccc(-c2ccccc2)cc1)C(=O)O; Phe(3-Me) = Cc1cccc(C[C@H](N)C(=O)O)c1; γGlu = O=C(O)[C@H](CCC(=O)[*:2])N[*:1]; Abu(3S-NH2) = C[C@H](N)[C@H](N)C(=O)O; NH(CH2)12COOH = O=C(O)CCCCCCCCCCCCN*; Val(3-OH) = CC(C)(O)[C@H](N)C(=O)O; dAla(cPr) = N[C@H](CC1CC1)C(=O)O; Cha = N[C@@H](CC1CCCCC1)C(=O)O; Cit = NC(=O)NCCC[C@H](N)C(=O)O; Ile(3ξ) = CCC(C)[C@H](N)C(=O)O; NMeN = CN[C@@H](CC(N)=O)C(=O)O; Thr(3ξ) = CC(O)[C@H](N)C(=O)O; 12Ado = NCCCCCCCCCCCC(=O)O; Carboxymethyl = O=C(O)C*; NMeA = CN[C@@H](C)C(=O)O; Orn = NCCC[C@H](N)C(=O)O; Aun = NCCCCCCCCCCC(=O)O; Dab = NCC[C@H](N)C(=O)O; Dap = NC[C@H](N)C(=O)O; AEEA = NCCOCCOCC(=O)O

target: T1, PD-1/PD-L1 interaction (PE-labeled human PD-L1-Ig binding to Jurkat cell line over-expressing human PD-1) (Homo sapiens, UniProt Q15116); assay: Jurkat-PD-1 Cell Binding High-Content Screening Assay (CBA); conditions: Jurkat-hPD-1 cells, PE-labeled PD-L1-Ig 20 nM final; read-out: Jurkat HPD1 PDL1 IC50
T1 construct: expressed in transfected cells; host or cells: Jurkat
T1 sequence (Q15116 25-288): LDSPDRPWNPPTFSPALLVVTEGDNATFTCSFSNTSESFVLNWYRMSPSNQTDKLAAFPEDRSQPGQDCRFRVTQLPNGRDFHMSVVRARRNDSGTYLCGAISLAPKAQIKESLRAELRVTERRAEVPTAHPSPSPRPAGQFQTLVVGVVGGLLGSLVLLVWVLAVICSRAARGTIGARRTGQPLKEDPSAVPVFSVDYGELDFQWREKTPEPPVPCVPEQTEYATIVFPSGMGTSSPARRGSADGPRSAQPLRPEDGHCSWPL
In short: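 Read-out: high-content imaging of cell-bound PE fluorescence, with Hoechst 33342 nuclear counterstain after paraformaldehyde fixation. Before labeled ligand (20 nM final, 1 h) was added, compound sat on the cells for 2 h at 37 °C in DMEM/10% FCS.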

Q: For `CC(=O)NCCCC[C@@H]1NC(=O)[C@H](C(C)(C)O)NC(=O)[C@H](CC2CCCCC2)NC(=O)[C@H](CCN)NC(=O)[C@@H](CC(C)C)NC(=O)[C@H](C)N(C)C(=O)[C@H](CCCNC(N)=O)NC(=O)[C@H](Cc2ccc(-c3ccccc3)cc2)NC(=O)[C@H](Cc2ccc(C(=O)O)cc2)NC(=O)[C@H](Cc2cccc(C(F)(F)F)c2)NC(=O)[C@H](CC(=O)O)NC(=O)[C@H](Cc2ccc(OCC(=O)O)cc2)NC(=O)[C@H]([C@H](C)N)NC(=O)CSC[C@@H](C(=O)N[C@@H](CCN)C(=O)NCCOCCOCC(=O)N[C@@H](CCC(=O)NCCOCCOCC(=O)NCCCCCCCCCCCCC(=O)O)C(=O)O)NC1=O` [Example 1206] ({CH2CO}-[Abu(3S-NH2)]Y(Carboxymethyl)D[Phe(3-CF3)][Phe(4-COOH)][Bip][Cit][NMeA][dL][Dab][Cha][Val(3-OH)]K(Ac)C[Dab][AEEA][γGlu][AEEA]-{NH(CH2)12COOH}; thioether N-14), which IC50 is on record?
A: 6.9 nM

Q: `Cc1cccc(C[C@@H]2NC(=O)[C@H](CC(=O)O)NC(=O)[C@H](Cc3ccc(OCC(=O)O)cc3)NC(=O)[C@H](Cc3ccc(OCC(=O)O)cc3)NC(=O)CSC[C@@H](C(=O)N[C@@H](CN)C(=O)NCCCCCCCCCCC(=O)O)NC(=O)[C@H](C(C)O)NC(=O)[C@H](C(C)C)NC(=O)[C@H](CC3CCCCC3)NC(=O)[C@H](CCN)NC(=O)[C@@H](CC(C)C)NC(=O)[C@H](C)N(C)C(=O)[C@H](CCCNC(N)=O)NC(=O)[C@H](Cc3ccc(-c4ccccc4)cc3)NC(=O)[C@H](CC(C)C)NC2=O)c1` (stereo partly drawn) [Example 2334] ({CH2CO}-Y(Carboxymethyl)Y(Carboxymethyl)D[Phe(3-Me)]L[Bip][Cit][NMeA][dL][Dab][Cha]V[Thr(3ξ)]C[Dap][Aun]-OH; thioether N-14) was tested. Which IC50 did it give?
A: 22.8 nM

Q: For `Cc1cccc(C[C@@H]2NC(=O)[C@H](CC(=O)O)NC(=O)[C@H](Cc3ccc(OCC(=O)O)cc3)NC(=O)[C@H](C(C)O)NC(=O)CSC[C@@H](C(=O)N(C)[C@@H](CC(N)=O)C(=O)NCCCCCCCCCCC(=O)O)NC(=O)[C@H](CO)NC(=O)[C@H](C(C)C)NC(=O)[C@H](CC3CCCCC3)NC(=O)[C@H](CCN)NC(=O)[C@@H](CC(C)C)NC(=O)[C@H](C)N(C)C(=O)[C@H](C(C)C)NC(=O)[C@H](Cc3ccc(-c4ccccc4)cc3)NC(=O)[C@H](C(C)C)NC2=O)c1` (stereo partly drawn) [Example 2302] ({CH2CO}-[Thr(3ξ)]Y(Carboxymethyl)D[Phe(3-Me)]V[Bip]V[NMeA][dL][Dab][Cha]VSC[NMeN][Aun]-OH; thioether N-14), which IC50 is on record?
A: 28.2 nM

Q: For `CC(C)C[C@@H]1NC(=O)[C@H](Cc2c[nH]c3ccccc23)NC(=O)[C@H](CC(=O)O)NC(=O)[C@H](Cc2ccc(C(=O)O)cc2)NC(=O)[C@H](Cc2ccc(OCC(=O)O)cc2)NC(=O)CSC[C@@H](C(=O)N[C@@H](CCCN)C(=O)NCCOCCOCC(=O)NCCCCCCCCCCC(=O)O)NC(=O)[C@H](CO)NC(=O)[C@H](C(C)C)NC(=O)[C@H](CC2CCCCC2)NC(=O)[C@H](CCN)NC(=O)[C@@H](CC2CC2)NC(=O)[C@H](C)N(C)C(=O)[C@H](C(C)C)NC(=O)[C@H](Cc2ccc(-c3ccccc3)cc2)NC1=O` [Example 1248] ({CH2CO}-Y(Carboxymethyl)[Phe(4-COOH)]DWL[Bip]V[NMeA][dAla(cPr)][Dab][Cha]VSC[Orn][AEEA][Aun]-OH; thioether N-14), which IC50 is on record?
A: 18 nM

Q: Which IC50 does the source give for `CCC(C)[C@@H]1NC(=O)[C@H](Cc2ccc(-c3ccccc3)cc2)NC(=O)[C@H](CC(C)C)NC(=O)[C@H](Cc2c[nH]c3ccccc23)NC(=O)[C@H](CC(=O)O)NC(=O)[C@H](Cc2ccc(C(=O)O)cc2)NC(=O)[C@H](Cc2ccc(OCC(=O)O)cc2)NC(=O)CSC[C@@H](C(=O)N[C@@H](CCN)C(=O)NCCOCCOCC(=O)NCCCCCCCCCCC(=O)O)NC(=O)[C@H](CO)NC(=O)[C@H](C(C)(C)O)NC(=O)[C@H](CC2CCCCC2)NC(=O)[C@H](CCN)NC(=O)[C@@H](CC(C)C)NC(=O)[C@H](C)N(C)C1=O` (stereo partly drawn) [Example 1410] ({CH2CO}-Y(Carboxymethyl)[Phe(4-COOH)]DWL[Bip][Ile(3ξ)][NMeA][dL][Dab][Cha][Val(3-OH)]SC[Dab][AEEA][Aun]-OH; thioether N-14) here?
A: 16.2 nM

Q: With `Cc1cccc(C[C@@H]2NC(=O)[C@H](CC(=O)O)NC(=O)[C@H](Cc3ccc(OCC(=O)O)cc3)NC(=O)[C@H](CCCNC(=N)N)NC(=O)CSC[C@@H](C(=O)N[C@@H](CCN)C(=O)NCCCCCCCCCCC(=O)O)NC(=O)[C@H](C(C)O)NC(=O)[C@H](C(C)C)NC(=O)[C@H](CC3CCCCC3)NC(=O)[C@H](CCN)NC(=O)[C@@H](CC(C)C)NC(=O)[C@H](C)N(C)C(=O)[C@H](Cc3ccc(OCC(=O)O)cc3)NC(=O)[C@H](Cc3ccc(-c4ccccc4)cc3)NC(=O)[C@H](CCCNC(N)=O)NC2=O)c1` (stereo partly drawn) [Example 2349] ({CH2CO}-RY(Carboxymethyl)D[Phe(3-Me)][Cit][Bip]Y(Carboxymethyl)[NMeA][dL][Dab][Cha]V[Thr(3ξ)]C[Dab][Aun]-OH; thioether N-14) as the compound, how does the IC50 read?
A: 32.5 nM

Q: With `CC(C)C[C@H]1NC(=O)[C@H](C)N(C)C(=O)[C@H](CCCNC(N)=O)NC(=O)[C@H](Cc2ccc(-c3ccccc3)cc2)NC(=O)[C@H](Cc2ccc(C(=O)O)cc2)NC(=O)[C@H](Cc2cccc(C(F)(F)F)c2)NC(=O)[C@H](CC(=O)O)NC(=O)[C@H](Cc2ccc(OCC(=O)O)cc2)NC(=O)[C@H](Cc2ccc(C(=O)O)cc2)NC(=O)CSC[C@@H](C(=O)N[C@@H](CCN)C(=O)NCCOCCOCC(=O)N[C@@H](CCC(=O)NCCOCCOCC(=O)NCCCCCCCCCCCCC(=O)O)C(=O)O)NC(=O)[C@H](CC(=O)O)NC(=O)[C@H](C(C)(C)O)NC(=O)[C@H](CC2CCCCC2)NC(=O)[C@H](CCN)NC1=O` [Example 1186] ({CH2CO}-[Phe(4-COOH)]Y(Carboxymethyl)D[Phe(3-CF3)][Phe(4-COOH)][Bip][Cit][NMeA][dL][Dab][Cha][Val(3-OH)]DC[Dab][AEEA][γGlu][AEEA]-{NH(CH2)12COOH}; thioether N-14) as the compound, how does the IC50 read?
A: 108 nM

Q: With `Cc1cccc(C[C@@H]2NC(=O)[C@H](CC(=O)O)NC(=O)[C@H](Cc3ccc(OCC(=O)O)cc3)NC(=O)[C@H](CN)NC(=O)CSC[C@@H](C(=O)NCCNCCNCC(=O)N[C@@H](CCCCN)C(=O)NCCCCCCCCCCC(=O)O)NC(=O)[C@H](CO)NC(=O)[C@H](C(C)C)NC(=O)[C@H](CC(C)C)NC(=O)[C@H](CC(N)=O)NC(=O)[C@@H](CC(C)C)NC(=O)[C@H](C)N(C)C(=O)[C@H](C(C)C)NC(=O)[C@H](Cc3ccc(-c4ccccc4)cc3)NC(=O)[C@H](CC(C)C)NC2=O)c1` [Example 1065] ({CH2CO}-[Dap]Y(Carboxymethyl)D[Phe(3-Me)]L[Bip]V[NMeA][dL]NLVSC-X15; thioether N-14) as the compound, how does the IC50 read?
A: 32.4 nM

Q: For `CCC(C)[C@@H]1NC(=O)[C@H](Cc2ccc(-c3ccccc3)cc2)NC(=O)[C@H](CC(C)C)NC(=O)[C@H](Cc2c[nH]c3ccccc23)NC(=O)[C@H](CC(=O)O)NC(=O)[C@H](Cc2ccc(C(=O)O)cc2)NC(=O)[C@H](Cc2ccc(OCC(=O)O)cc2)NC(=O)CSC[C@@H](C(=O)NCCOCCOCC(=O)N[C@@H](CN)C(=O)NCCCCCCCCCCC(=O)O)NC(=O)[C@H](CO)NC(=O)[C@H](C(C)C)NC(=O)[C@H](CC2CCCCC2)NC(=O)[C@H](CC(N)=O)NC(=O)[C@@H](CC(C)C)NC(=O)[C@H](C)N(C)C1=O` (stereo partly drawn) [Example 2066] ({CH2CO}-Y(Carboxymethyl)[Phe(4-COOH)]DWL[Bip][Ile(3ξ)][NMeA][dL]N[Cha]VSC[AEEA][Dap][Aun]-OH; thioether N-14), which IC50 is on record?
A: 110 nM

Q: With `CC(C)C[C@@H]1NC(=O)[C@H](Cc2c[nH]c3ccccc23)NC(=O)[C@H](CC(=O)O)NC(=O)[C@H](Cc2ccc(C(=O)O)cc2)NC(=O)[C@H](Cc2ccc(OCC(=O)O)cc2)NC(=O)CSC[C@@H](C(=O)N[C@@H](CCCCN)C(=O)NCCCCCCCCCCC(=O)O)NC(=O)[C@H](CCCNC(N)=O)NC(=O)[C@H](C(C)C)NC(=O)[C@H](CC2CCCCC2)NC(=O)[C@H](CCN)NC(=O)[C@@H](CC(C)C)NC(=O)[C@H](C)N(C)C(=O)[C@H](C(C)C)NC(=O)[C@H](Cc2ccc(-c3ccccc3)cc2)NC1=O` [Example 1099] ({CH2CO}-Y(Carboxymethyl)[Phe(4-COOH)]DWL[Bip]V[NMeA][dL][Dab][Cha]V[Cit]CK[Aun]-OH; thioether N-14) as the compound, how does the IC50 read?
A: 9.8 nM

same assay, conditions: PE-labeled PD-L1-Ig 20 nM final, Jurkat-hPD-1 cells; read-out: Jurkat HPD1 PDL1 IC50

Q: With `Cc1cccc(C[C@@H]2NC(=O)[C@H](CC(=O)O)NC(=O)[C@H](Cc3ccc(OCC(=O)O)cc3)NC(=O)[C@H]([C@@H](C)O)NC(=O)CSC[C@@H](C(=O)N[C@@H](CCN)C(=O)NCCCCCCCCCCCC(=O)NCCCCCCCCCCCC(=O)O)NC(=O)[C@H](CCC(=O)O)NC(=O)[C@H](C(C)C)NC(=O)[C@H](CC3CCCCC3)NC(=O)[C@H](CCN)NC(=O)[C@@H](CC(C)C)NC(=O)[C@H](C)N(C)C(=O)[C@H](Cc3ccc(OCC(=O)O)cc3)NC(=O)[C@H](Cc3ccc(-c4ccccc4)cc3)NC(=O)[C@H](Cc3ccc(OCC(=O)O)cc3)NC2=O)c1` [Example 2682] ({CH2CO}-TY(Carboxymethyl)D[Phe(3-Me)]Y(Carboxymethyl)[Bip]Y(Carboxymethyl)[NMeA][dL][Dab][Cha]VEC[Dab][12Ado][12Ado]-OH; thioether N-14) as the compound, how does the IC50 read?
A: 58 nM

Q: With `Cc1cccc(C[C@@H]2NC(=O)[C@H](CC(=O)O)NC(=O)[C@H](Cc3ccc(OCC(=O)O)cc3)NC(=O)[C@H]([C@@H](C)O)NC(=O)CSC[C@@H](C(=O)N[C@@H](CCN)C(=O)NCCCCCCCCCCCC(=O)NCCCCCCCCCCC(=O)O)NC(=O)[C@H](CCC(=O)O)NC(=O)[C@H](C(C)C)NC(=O)[C@H](CC3CCCCC3)NC(=O)[C@H](CCN)NC(=O)[C@@H](CC(C)C)NC(=O)[C@H](C)N(C)C(=O)[C@H](Cc3ccc(OCC(=O)O)cc3)NC(=O)[C@H](Cc3ccc(-c4ccccc4)cc3)NC(=O)[C@H](Cc3ccc(OCC(=O)O)cc3)NC2=O)c1` [Example 2679] ({CH2CO}-TY(Carboxymethyl)D[Phe(3-Me)]Y(Carboxymethyl)[Bip]Y(Carboxymethyl)[NMeA][dL][Dab][Cha]VEC[Dab][12Ado][Aun]-OH; thioether N-14) as the compound, how does the IC50 read?
A: 12.2 nM
